Source: patent publication EP0640594A1, “Hydantoin derivative as metalloprotease inhibitor” (FUJIREBIO INC., priority 1993, dated 1995)

Key:
[1] = biological target: ACE (Homo sapiens, UniProt P12821); assay: in vitro inhibitory activity on ACE; format: biochemical; conditions: 0.016 unit/ml ACE; 2.0 mM hippuryl-L-histidyl-L-leucine, pH 8.4, 37°C, 30 minutes
Method: The inhibitory activity on ACE was measured according to the method described in Biochem. Pharmacolo., 20, 1637 (1971). That is, a 100 mM boric acid/sodium carbonate buffer solution (pH 8.4) containing 2.0 mM of hippuryl-L-histidyl-L-leucine, 0.016 unit/ml of ACE, 0.8 M of NaCl, and a predetermined amount of the sample compound was prepared and the reaction was carried out at 37°C for 30 minutes. The amount of hippuric acid produced by the ACE activity was measured to determine the inhibitory activity.

[2] = biological target: T1, NEP (Rattus norvegicus, UniProt P07861); assay: in vitro inhibitory activity on NEP; format: biochemical; conditions: NEP from kidneys of male SD rats; 0.4 mM glutaryl-Ala-Ala-Phe-4-methoxy-β-naphthylamide, pH 7.4, 37°C, 1 hour
T1 construct: The fractions with the NEP activity were collected, and was used as the enzyme source for the test; from tissue; host or cells: kidneys of male SD rats
T1 sequence (P07861 1-750): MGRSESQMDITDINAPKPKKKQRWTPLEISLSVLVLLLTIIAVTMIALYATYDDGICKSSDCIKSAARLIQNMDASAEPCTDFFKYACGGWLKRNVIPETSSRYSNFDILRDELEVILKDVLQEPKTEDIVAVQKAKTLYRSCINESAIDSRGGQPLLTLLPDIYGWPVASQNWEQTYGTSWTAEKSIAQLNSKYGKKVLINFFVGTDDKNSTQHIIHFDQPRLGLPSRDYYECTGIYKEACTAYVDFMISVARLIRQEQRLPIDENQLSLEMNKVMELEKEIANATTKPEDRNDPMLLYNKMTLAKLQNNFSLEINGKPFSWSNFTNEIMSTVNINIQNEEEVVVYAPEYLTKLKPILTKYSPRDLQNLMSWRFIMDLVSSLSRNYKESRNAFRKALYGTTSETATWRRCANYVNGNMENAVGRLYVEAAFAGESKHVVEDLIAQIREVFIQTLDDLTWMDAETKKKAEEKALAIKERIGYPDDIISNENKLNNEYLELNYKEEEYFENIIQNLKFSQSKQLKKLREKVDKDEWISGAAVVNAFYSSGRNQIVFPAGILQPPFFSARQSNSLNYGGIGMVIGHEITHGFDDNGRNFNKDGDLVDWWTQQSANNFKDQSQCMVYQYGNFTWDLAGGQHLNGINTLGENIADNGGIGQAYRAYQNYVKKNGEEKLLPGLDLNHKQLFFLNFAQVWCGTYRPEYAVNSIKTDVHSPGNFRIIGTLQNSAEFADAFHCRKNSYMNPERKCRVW
Method: NEP was prepared as follows in accordance with the process as described in Peptide, 9, 173 (1988). Kidneys of male SD rats were homogenized with 10 times by volume of a tris/HCl buffer solution (pH 7.0) containing mannitol and magnesium chloride. The homogenate was centrifuged (700 × g) to give a supernatant liquid. To the supernatant liquid was added n-octyl-β-D-glucoside in an amount to give a final concentration of 1 %, followed by stirring at 4°C for 1 hour, thereby solubilizing the enzyme. The solution was dialyzed against 5 mM HEPES/0.1% Triton (pH 7.4). The inner liquid was applied to a DE-52 column (2.5 cm i.d. × 15 cm) equilibrated with 5 mM HEPES/0.1% Triton (pH 7.4). The column was eluted with 500 ml of a NaCl solution having a linear concentration gradient of 0-300 mM. The fractions with the NEP activity were collected, and was used as the enzyme source for the test.
The inhibitory activity on NEP was measured according to the method described in Biochemistry, 20, 4942 (1981). That is, 250 µl of a 50 mM tris/HCl buffer solution (pH 7.4) containing 0.4 mM of glutaryl-Ala-Ala-Phe-4-methoxy-β-naphthylamide, 0.25 unit/ml of leucine aminopeptidase, a predetermined amount of the sample compound and NEP was prepared and the reaction was carried out at 37°C for 1 hour. The amount of 4-methoxy-β-naphthylamide produced by the NEP activity was measured to determine the inhibitory activity.

Chain of ACE (P12821 30-1306, species assumed): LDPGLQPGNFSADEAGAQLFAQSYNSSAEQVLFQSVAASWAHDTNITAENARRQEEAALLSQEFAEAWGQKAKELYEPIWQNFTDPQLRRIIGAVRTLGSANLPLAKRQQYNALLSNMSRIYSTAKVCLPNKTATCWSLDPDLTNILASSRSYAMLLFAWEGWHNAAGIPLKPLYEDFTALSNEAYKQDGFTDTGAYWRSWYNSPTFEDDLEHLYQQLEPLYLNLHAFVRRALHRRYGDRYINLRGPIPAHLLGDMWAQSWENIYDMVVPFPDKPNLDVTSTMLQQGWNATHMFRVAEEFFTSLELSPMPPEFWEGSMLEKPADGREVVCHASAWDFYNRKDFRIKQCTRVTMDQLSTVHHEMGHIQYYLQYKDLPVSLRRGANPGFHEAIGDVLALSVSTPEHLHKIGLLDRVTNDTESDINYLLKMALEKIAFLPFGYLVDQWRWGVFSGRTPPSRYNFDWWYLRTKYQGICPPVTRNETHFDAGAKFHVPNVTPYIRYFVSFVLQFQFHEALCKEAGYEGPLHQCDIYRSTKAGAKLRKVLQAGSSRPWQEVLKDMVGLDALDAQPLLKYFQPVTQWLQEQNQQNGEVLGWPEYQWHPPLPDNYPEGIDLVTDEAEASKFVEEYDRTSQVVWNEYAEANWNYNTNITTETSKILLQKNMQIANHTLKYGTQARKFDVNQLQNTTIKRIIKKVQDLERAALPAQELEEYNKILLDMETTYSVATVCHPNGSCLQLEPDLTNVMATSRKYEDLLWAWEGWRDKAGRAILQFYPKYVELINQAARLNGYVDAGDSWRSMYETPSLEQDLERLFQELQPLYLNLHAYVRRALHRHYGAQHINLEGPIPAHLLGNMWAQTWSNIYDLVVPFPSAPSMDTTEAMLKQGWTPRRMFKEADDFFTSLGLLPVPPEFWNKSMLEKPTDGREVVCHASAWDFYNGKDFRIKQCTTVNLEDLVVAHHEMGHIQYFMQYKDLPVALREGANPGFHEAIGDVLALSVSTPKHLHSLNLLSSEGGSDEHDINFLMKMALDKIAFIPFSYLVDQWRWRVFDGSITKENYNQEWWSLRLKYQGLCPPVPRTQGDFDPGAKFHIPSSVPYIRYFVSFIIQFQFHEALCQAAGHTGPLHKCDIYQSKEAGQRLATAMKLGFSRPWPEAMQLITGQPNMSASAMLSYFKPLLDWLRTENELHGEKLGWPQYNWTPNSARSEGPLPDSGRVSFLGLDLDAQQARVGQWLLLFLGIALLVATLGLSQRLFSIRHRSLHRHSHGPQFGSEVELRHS

IC50 [1] [nM]	IC50 [2] [nM]	Compound
3400		CC(C)C1C(=O)N(C(CS)Cc2ccccc2)C(=O)N1CC(=O)O (stereo not drawn) [Example 36, 1-(carboxymethyl)-5-(1-methylethyl)-3-(1-mercapto-3-phenyl-2-propyl)hydantoin]
370	560	O=C(O)CN1C(=O)N(C(CS)Cc2ccccc2)C(=O)C1C1CCCC1 (stereo not drawn) [Example 51, 1-(carboxymethyl)-5-cyclopentyl-3-(1-mercapto-3-phenyl-2-propyl)hydantoin]
2400		CC1(C)C(=O)N(C(CS)Cc2ccccc2)C(=O)N1CC(=O)O (stereo not drawn) [Example 40, 1-(carboxymethyl)-5,5-dimethyl-3-(1-mercapto-3-phenyl-2-propyl)hydantoin]
	56	CCC(C)[C@@H](C(=O)O)N1CC(=O)N(C(CS)Cc2ccccc2)C1=O (stereo partly drawn) [Example 29, 1-[(1S)-1-carboxy-2-methylbutyl]-3-(1-mercapto-3-phenyl-2-propyl)hydantoin]
450	61	O=C(O)CN1C(=O)N(C(CS)Cc2ccccc2)C(=O)C1c1ccccc1 (stereo not drawn) [Example 52, 1-(carboxymethyl)-5-phenyl-3-(1-mercapto-3-phenyl-2-propyl)hydantoin]
5400	230	O=C(O)CN1CC(=O)N(C(CS)Cc2ccccc2)C1=O (stereo not drawn) [Example 20, 1-(carboxymethyl)-3-(1-mercapto-3-phenyl-2-propyl)hydantoin]
200		O=C(O)CN1C(=O)N(C(CS)Cc2ccccc2)C(=O)C12CCCCC2 (stereo not drawn) [Example 34]
	220	CC(C)C[C@@H](C(=O)O)N1CC(=O)N(C(CS)Cc2ccccc2)C1=O (stereo partly drawn) [Example 28, 1-[(1S)-1-carboxy-3-methylbutyl]-3-(1-mercapto-3-phenyl-2-propyl)hydantoin]
	52	CC(C)[C@@H](C(=O)O)N1CC(=O)N(C(CS)Cc2ccccc2)C1=O (stereo partly drawn) [Example 21, 1-[(1S)-1-carboxy-2-methylpropyl)-3-(1-mercapto-3-phenyl-2-propyl)hydantoin]
	28	CC(C)Oc1ccc(C2C(=O)N(C(CS)Cc3ccccc3)C(=O)N2CC(=O)O)cc1 (stereo not drawn) [Example 58, 1-(carboxymethyl)-3-(1-mercapto-3-phenyl-2-propyl)-5-[4-(2-propyloxy)phenyl]hydantoin]
300		O=C(O)CN1C(=O)N(C(CS)Cc2ccccc2)C(=O)C12CCC2 (stereo not drawn) [Example 50, 1-(carboxymethyl)-3-(1-mercapto-3-phenyl-2-propyl)-hydantoin-5-spirocyclobutane]
460	460	O=C(O)CN1C(=O)N(C(CS)Cc2ccccc2)C(=O)C12CCCC2 (stereo not drawn) [Example 41, 1-(carboxymethyl)-3-(1-mercapto-3-phenyl-2-propyl)hydantoin-5-spirocyclopentane]
	6.5	COc1ccc(C2C(=O)N(C(CS)Cc3ccccc3)C(=O)N2CC(=O)O)cc1 (stereo not drawn) [Example 56, 1-(carboxymethyl)-3-(1-mercapto-3-phenyl-2-propyl)-5-(4-methoxyphenyl)hydantoin]
680	99	O=C(O)CN1C(=O)N(C(CS)Cc2ccccc2)C(=O)C12Cc1ccccc1C2 (stereo not drawn) [Example 44, 1-(carboxymethyl)-3-(1-mercapto-3-phenyl-2-propyl)hydantoin-5-spiro-2'-indane]
1100		CC(O)C1C(=O)N(C(CS)Cc2ccccc2)C(=O)N1CC(=O)O (stereo not drawn) [Example 43, 1-(carboxymethyl)-5-(1-hydroxyethyl)-3-(1-mercapto-3-phenyl-2-propyl)hydantoin]
	170	C[C@@H](C(=O)O)N1CC(=O)N(C(CS)Cc2ccccc2)C1=O (stereo partly drawn) [Example 26, 1-[(1S)-1-carboxyethyl]-3-(1-mercapto-3-phenyl-2-propyl)hydantoin]
1600		CCC(C)C1C(=O)N(C(CS)Cc2ccccc2)C(=O)N1CC(=O)O (stereo not drawn) [Example 42, 5-(2-butyl)-1-(carboxymethyl)-3-(1-mercapto-3-phenyl-2-propyl)hydantoin]
	90	O=C(O)CN1C(=O)N(C(CS)Cc2ccccc2)C(=O)C1c1ccc(O)cc1 (stereo not drawn) [Example 55, 1-(carboxymethyl)-5-(4-hydroxyphenyl)-3-(1-mercapto-3-phenyl-2-propyl)hydantoin]
	250	O=C(O)CC1C(=O)N(C(CS)Cc2ccccc2)C(=O)N1C1CCCC1 (stereo not drawn) [Example 18, 5-(carboxymethyl)-1-cyclopentyl-3-(1-mercapto-3-phenyl-2-propyl)hydantoin]

Further lines, the compound ahead of its results:

Compound	IC50 [1] [nM]	IC50 [2] [nM]
O=C1CN(C2CCCC2)C(=O)N1C(CS)Cc1ccccc1 (stereo not drawn) [Example 1, 1-cyclopentyl-3-(1-mercapto-3-phenyl-2-propyl)hydantoin]		450
CC(CS)N1C(=O)N(CC(=O)O)C2(CCCC2)C1=O (stereo not drawn) [Example 63, 1-(carboxymethyl)-3-(1-mercapto-2-propyl)hydantoin-5-spirocyclopentane]	180	
O=C(O)Cn1c(=O)n(C(CS)Cc2ccccc2)c(=O)n1C1CCCC1 (stereo not drawn) [Example 72, 1-(carboxymethyl)-2-cyclopentyl-4-(1-mercapto-3-phenyl-2-propyl)urazole]		400
O=C(O)CN1C(=O)N(C(CS)Cc2ccccc2)C(=O)C1C(c1ccccc1)c1ccccc1 (stereo not drawn) [Example 53, 1-(carboxymethyl)-5-(diphenylmethyl)-3-(1-mercapto-3-phenyl-2-propyl)hydantoin]		230
O=C(O)CCC1C(=O)N(C(CS)Cc2ccccc2)C(=O)N1C1CCCC1 (stereo not drawn) [Example 19, 5-(2-carboxyethyl)-1-cyclopentyl-3-(1-mercapto-3-phenyl-2-propyl)hydantoin]		160
O=C1CN(C2CCCCC2)C(=O)N1C(CS)Cc1ccccc1 (stereo not drawn) [Example 3, 1-cyclohexyl-3-(1-mercapto-3-phenyl-2-propyl)hydantoin]		250
CC(C)C(CS)N1C(=O)N(CC(=O)O)C2(CCCC2)C1=O (stereo not drawn) [Example 65, 1-(carboxymethyl)-3-(1-mercapto-3-methyl-2-butyl)hydantoin-5-spirocyclopentane]	1000	
O=C(O)[C@H](Cc1ccccc1)N1CC(=O)N(C(CS)Cc2ccccc2)C1=O (stereo partly drawn) [Example 27, 1-[(1S)-1-carboxy-2-phenylethyl]-3-(1-mercapto-3-phenyl-2-propyl)hydantoin]		260
O=C(O)CN1C(=O)N(C(CS)Cc2ccccc2)C(=O)C1C1c2ccccc2-c2ccccc21 (stereo not drawn) [Example 60, 1-(carboxymethyl)-5-(9-fluorenyl)-3-(1-mercapto-3-phenyl-2-propyl)hydantoin]		180
O=C1CN(N2CCOCC2)C(=O)N1C(CS)Cc1ccccc1 (stereo not drawn) [Example 46, 3-(1-mercapto-3-phenyl-2-propyl)-1-(4-morpholinyl)hydantoin]		110
CC(C)CC(CS)N1C(=O)CN(CC(=O)O)C1=O (stereo not drawn) [Example 66, 1-(carboxymethyl)-3-(1-mercapto-4-methyl-2-pentyl)-hydantoin]		700
O=C1CN(N2CCCCC2)C(=O)N1C(CS)Cc1ccccc1 (stereo not drawn) [Example 45, 3-(1-mercapto-3-phenyl-2-propyl)-1-piperidinylhydantoin]		59
CC(C)CC(CS)N1C(=O)N(CC(=O)O)C2(CCCC2)C1=O (stereo not drawn) [Example 67, 1-(carboxymethyl)-3-(1-mercapto-4-methyl-2-pentyl)hydantoin-5-spirocyclopentane]	510	160
O=C1CN(C2(C(=O)O)CCCCC2)C(=O)N1C(CS)Cc1ccccc1 (stereo not drawn) [Example 24, 1-(1-carboxycyclohexyl)-3-(1-mercapto-3-phenyl-2-propyl) hydantoin]	5200	
